Like-named read-outs stand apart in the source and are kept apart here.
Key:
[1] = test system: pCDK2 and phospho-RB in MDA-MB-468 cells; experiment: Western blot of pCDK2 and phospho-Rb in MDA-MB-468 cells; assay type: cell-based; conditions: increasing amounts
Description: FIGS. 3A-3B show target protein inhibition in Basal like TNBC cells. FIG. 3A is a Western blot showing pCDK2 levels in MDA-MB-468 cells with increasing dose of I-3 (CD11). FIG. 3B is a Western blot showing Phospho-Rb levels in MDA-MB-468 cells with increasing dose of I-3 (CD11).
Compound 1-3 efficacy was assessed in several in vitro assays. A nanoBrET assay was used to measure intracellular kinase activity of I-3 with CDK2, CDK1, CDK7 and CDK9. Briefly, HEK293 cells were transfected with CDK2, CDK1, CDK7 and CDK9. The transfected cells were treated in duplicate with test compound I-3 (starting at 10 μM, 10-dose with 3-fold dilution) and target engagement was measured by NanoBRET assay (FIG. 2A and Table 4). Cellular thermal shift assay (CETSA) was also performed to evaluate drug target interaction in the cells. The CETSA method is built upon two concepts: cellular thermal shift and isothermal dose-response. The cellular thermal shift assay is based on the established fact that proteins that are complexed to a ligand become more resistant to heat induced unfolding. Isothermal dose response is used to determine a compound's potency in binding the target by measuring the thermal stability of the target treated with various concentrations of compound at a fixed temperature. […]

[2] = Absolute bioavailability / PK after IV and PO dosing in CD-1 male mice; assay type: in vivo; conditions: for Vd / AUC(0-t) / Tmax: male
Description: Absolute bioavailability of I-3 was assessed after IV and PO dosing in CD-1 male mice. Mean plasma concentration (FIG. 6) and PK parameters (Table 12) are shown. […] Plasma concentrations were observed up to 8 hours, and plasma concentrations were not observed at 24 hour time point. […] This is approximately 50% of the hepatic blood flow ([…]) in mice.

[3] = test system: MDA-MB-231 breast cancer xenograft; experiment: Anti-tumor efficacy in MDA-MB-231 breast cancer xenograft model; assay type: in vivo, mice; conditions: p<0.0001
Description: (§1) Anti-tumor efficacy of I-3 was evaluated in a MDA-MB-231 breast cancer xenograft model. Briefly, mice with MDA-MB-231 tumors were randomized to three treatment groups: control (Vehicle, n=8), 1-3 IV (10 mg/kg, n=8) and 1-3 PO (10 mg/kg, n=8) on a schedule of 14 days for daily (PO) or twice weekly (IV). Oral gavage treatments were formulated in 0.1% Tween 80 and 99.9% of 0.5% (w/v) of methyl cellulose in water. Intravenous treatments were formulated in 5% (v/v) DMSO, 2.5% (v/v) absolute ethanol, 2.5% (v/v) Solutol, and 90% Normal saline. Tumor growth was measured twice weekly by using a digital vernier caliper and high resolution images of tumor bearing mice were captured using a digital camera at weekly intervals of the study (Days 0, 7 and 14). Tumor volume was calculated as follows:
Tumor Volume=[Length(L)×Width(W)^2]/2
where length (L) is the largest diameter of the tumor and width (W) is the smallest diameter of the tumor.

[4] = In vivo safety (body weight, complete blood counts) in xenograft study; set-up: species or system mice
Description: as §1, with “follows: […]” for “follows:”
At the end of the study, blood samples were collected from the animals for analysis of complete blood counts (CBC) using an automated hematology analyser (ADVIA2120, Siemens Ltd.). […] Once daily oral doses of 10 mg/Kg and twice weekly IV doses of 10 mg/kg were well-tolerated by the animals during the course of the treatment, with no changes in body weight or blood counts compared to vehicle control over the course of the study (Tables 14 and 15).

[5] = CD-1, mouse, plasma, male CD1 mice, PO 10 mg/kg

**Q.** What does the source list for `Nc1nccc(-c2c[nH]c3nccc(Oc4cccc(F)c4)c23)n1` [I-3, 4-(4-(3-fluorophenoxy)-1H-pyrrolo[2,3-b]pyridin-3-yl)pyrimidin-2-amine]?
**A.** pCDK2 levels [1]: reduced; phosphor-RB levels [1]: reduced; half-life ([2]; CD-1, mouse, plasma, male CD1 mice, IV 1 mg/kg): 3.4 ± 0.7 h; clearance ([2]; CD-1, mouse, plasma, male CD1 mice, IV 1 mg/kg, read-out: CLp (converted)): 41.7 mL/min/kg; AUC(0-inf) [2, 5]: 6570 ± 542 ng·h/mL; Cmax [2, 5]: 2500 ± 55.5 ng/mL; Plasma clearance ([2]; CD-1 male mice, IV): 41.7 mL/min/kg; Plasma clearance as share of hepatic blood flow (5.4 L/kg) in mice ([2]; CD-1 male mice, IV): approximately 50%; Volume of distribution compared to total body water content (0.7 L/kg) ([2]; CD-1 male mice, IV): 17 fold; Time up to which plasma concentrations were observed ([2]; CD-1 male mice, after IV administration, not observed at 24 hour): up to 8 hours; Bioavailability (% F) ([2]; male CD1 mice, PO 10 mg/kg vs IV 1 mg/kg): 147.5 ± 14.8 % F; Vd ([2]; CD-1, mouse, plasma, iv, 1 mg/kg, CD-1 male mice, IV, read-out: Volume of distribution): 12.5 L/kg; AUC(0-t) ([2]; CD-1, mouse, plasma, iv, 1 mg/kg, male CD1 mice, IV 1 mg/kg): 384 ± 98.9 ng·h/mL; Vd ([2]; CD-1, mouse, plasma, iv, 1 mg/kg, male CD1 mice, IV 1 mg/kg, read-out: Vdss): 6.8 ± 2.4 L/kg; AUC(0-t) ([2]; CD-1, mouse, plasma, po, 10 mg/kg, CD-1 male mice, PO 10 mg/kg): 5670 ng·h/mL; Tmax ([2]; CD-1, mouse, plasma, po, 10 mg/kg, CD-1 male mice, PO 10 mg/kg, read-out: Tmax (oral absorption)): 0.5 to 1 h; AUC(0-t) ([2]; CD-1, mouse, plasma, po, 10 mg/kg, male CD1 mice, PO 10 mg/kg): 5670 ± 569 ng·h/mL; Tmax ([2]; CD-1, mouse, plasma, po, 10 mg/kg, male CD1 mice, PO 10 mg/kg, read-out: Tmax): 1 ± 0.3 h; bioavailability ([2]; mouse, plasma, CD-1 male mice, PO 10 mg/kg, read-out: Oral suspension bioavailability (% F)): > 100%; tumor growth inhibition (TGI) ([3]; IV 10 mg/kg twice weekly, 14 days, vs control): 60%; tumor growth inhibition (TGI) ([3]; PO 10 mg/kg once daily, end of two weeks): 54%; Body Weight, mean ± SE ([4]; IV 10 mg/kg, Day 0): 22.1 ± 0.6 g; Body Weight, mean ± SE ([4]; IV 10 mg/kg, Day 7): 22.3 ± 1.0 g; Body Weight, mean ± SE ([4]; IV 10 mg/kg, Day 14): 22.9 ± 0.7 g; Hematocrit (Mean ± SE) ([4]; IV 10 mg/kg, end of study): 38.4 ± 3.7%; Hemoglovin (Mean ± SE) ([4]; IV 10 mg/kg, end of study): 12.8 ± 0.8 g/dL; Mean corpuscular hemoglobin (Mean ± SE) ([4]; IV 10 mg/kg, end of study): 15.2 ± 0.2 pg; Mean corpuscular hemoglobin concentration (Mean ± SE) ([4]; IV 10 mg/kg, end of study): 30.3 ± 0.2 g/dL; Mean corpuscular volume (Mean ± SE) ([4]; IV 10 mg/kg, end of study): 50.2 ± 0.3 fL; Platelets (Mean ± SE) ([4]; IV 10 mg/kg, end of study): 802.4 ± 107.9 10^3 cells/μL; Red blood cells (Mean ± SE) ([4]; IV 10 mg/kg, end of study): 8.4 ± 0.5 10^6 cells/μL; White blood cells (Mean ± SE) ([4]; IV 10 mg/kg, end of study): 22.9 ± 8.3 10^3 cells/μL; Tolerability ([4]; PO 10 mg/Kg once daily and IV 10 mg/kg twice weekly, 14 days): well-tolerated; Body Weight, mean ± SE ([4]; PO 10 mg/kg, Day 0): 21.6 ± 0.4 g; Body Weight, mean ± SE ([4]; PO 10 mg/kg, Day 7): 20.9 ± 0.9 g; Body Weight, mean ± SE ([4]; PO 10 mg/kg, Day 14): 21.6 ± 0.9 g; Hematocrit (Mean ± SE) ([4]; PO 10 mg/kg, end of study): 34.2 ± 0.9%; Hemoglovin (Mean ± SE) ([4]; PO 10 mg/kg, end of study): 10.6 ± 0.3 g/dL; Mean corpuscular hemoglobin (Mean ± SE) ([4]; PO 10 mg/kg, end of study): 15.3 ± 0.1 pg; Mean corpuscular hemoglobin concentration (Mean ± SE) ([4]; PO 10 mg/kg, end of study): 31.1 ± 0.2 g/dL; Mean corpuscular volume (Mean ± SE) ([4]; PO 10 mg/kg, end of study): 44.8 ± 4.1 fL; Platelets (Mean ± SE) ([4]; PO 10 mg/kg, end of study): 762.1 ± 99.3 10^3 cells/μL; Red blood cells (Mean ± SE) ([4]; PO 10 mg/kg, end of study): 6.9 ± 0.2 10^6 cells/μL; White blood cells (Mean ± SE) ([4]; PO 10 mg/kg, end of study): 36.6 ± 6.8 10^3 cells/μL; Complete blood counts vs control group ([4]; end of study, IV and PO 10 mg/kg): no significant differences

Source: patent US20240261297A1, “ANTI-CDK INHIBITORS FOR CANCER TREATMENT” (St. John's Cancer Institute, priority 2021, published 2024)
